Tests used:
Assay in all cases: relative viability (nuclei count vs DMSO), 5 days (fraction); higher = more cells survive
Midostaurin = compound: CO[C@@H]1[C@H](N(C)C(=O)c2ccccc2)C[C@H]2O[C@]1(C)n1c3ccccc3c3c4c(c5c6ccccc6n2c5c31)C(=O)NC4 [Midostaurin]
Procedure, shortened: (§1)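 Vehicle-anchored 1536-well plates of lung cancer cell lines, held overnight at 37 °C, were pinned with five library-drug doses (not always all listed) spaced by √10. No medium change followed over the next 5 days, after which the cells were fixed, permeabilised and Hoechst-stained together and imaged at 4×. Nuclei were counted with MetaXpress, and viability is treated-well nuclei over vehicle-well nuclei, taken as a median across plates. Plates passed with control CV below 25% and at least one doubling.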

[1] = compound: COc1cc(-c2nn([C@H]3CC[C@H](N4CCN(C(C)=O)CC4)CC3)c3ncnc(N)c23)ccc1NC(=O)c1cc2ccccc2n1C
Procedure, shortened: as §1

Midostaurin + Alpelisib = compound: CO[C@@H]1[C@H](N(C)C(=O)c2ccccc2)C[C@H]2O[C@]1(C)n1c3ccccc3c3c4c(c5c6ccccc6n2c5c31)C(=O)NC4 [Midostaurin] + Cc1nc(NC(=O)N2CCC[C@H]2C(N)=O)sc1-c1ccnc(C(C)(C)C(F)(F)F)c1 [Alpelisib] (partner 2 µM)
Procedure, shortened: (§2)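 Lung cancer cell lines, seeded in 1536-well plates, were treated the following day by pin tool with a single drug or with five library-drug doses (not always all listed) in √10 steps on top of a fixed anchor-drug dose. Cells were fixed and nuclei stained in one step after 5 days, and nuclei were counted. Relative viability is the nuclei count for treated wells divided by that for vehicle wells, reported as medians of duplicate plates.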

Midostaurin + Pemetrexed = compound: CO[C@@H]1[C@H](N(C)C(=O)c2ccccc2)C[C@H]2O[C@]1(C)n1c3ccccc3c3c4c(c5c6ccccc6n2c5c31)C(=O)NC4 [Midostaurin] + Nc1nc2[nH]cc(CCc3ccc(C(=O)N[C@@H](CCC(=O)O)C(=O)O)cc3)c2c(=O)[nH]1 [Pemetrexed] (partner 0.2 µM)
Procedure, shortened: as §2

[2] = compound: COc1cc(-c2nn([C@H]3CC[C@H](N4CCN(C(C)=O)CC4)CC3)c3ncnc(N)c23)ccc1NC(=O)c1cc2ccccc2n1C + CC(C)C[C@H](NC(=O)[C@H](Cc1ccccc1)NC(=O)c1cnccn1)B(O)O [Bortezomib] (partner 0.002 µM)
Procedure, shortened: as §2

Cell Line	relative viability (Midostaurin; 0.01 µM)	relative viability (Midostaurin; 0.03162 µM)	relative viability (Midostaurin; 0.1 µM)	relative viability (Midostaurin; 0.3162 µM)	relative viability ([1]; 0.0128 µM)	relative viability ([1]; 0.04048 µM)	relative viability ([1]; 0.128 µM)	relative viability ([1]; 1.28 µM)	relative viability (Midostaurin + Alpelisib; first compound 0.01 µM)	relative viability (Midostaurin + Alpelisib; first compound 0.03162 µM)	relative viability (Midostaurin + Alpelisib; first compound 0.1 µM)	relative viability (Midostaurin + Alpelisib; first compound 0.3162 µM)	relative viability (Midostaurin + Pemetrexed; first compound 0.01 µM)	relative viability (Midostaurin + Pemetrexed; first compound 0.03162 µM)	relative viability (Midostaurin + Pemetrexed; first compound 0.1 µM)	relative viability (Midostaurin + Pemetrexed; first compound 0.3162 µM)	relative viability ([2]; first compound 0.0128 µM)	relative viability ([2]; first compound 0.04048 µM)	relative viability ([2]; first compound 0.128 µM)	relative viability ([2]; first compound 1.28 µM)
H3255	0.971	0.948	0.876	0.966	0.996	0.962	0.946	0.763	0.724	0.7	0.698	0.7	0.571	0.494	0.529	0.579	0.92	0.765	0.721	0.779
NCI-H1437	0.96	0.999	0.972	0.92	0.979	1.04	0.964	0.906	1.06	0.995	0.96	0.986	0.311	0.3	0.332	0.323	0.587	0.522	0.365	0.585
LU99A	0.881	1.14	0.887	0.939	1.03	0.84	0.998	0.982	0.437	0.457	0.396	0.387	0.182	0.165	0.167	0.224	1.34	1.19	1.04	1.3
HCC-827	1.02	1.04	0.972	1.04	0.98	1.03	0.957	0.753	0.984	1	0.948	1.02	0.249	0.251	0.241	0.255	0.831	1.17	0.99	0.676
HCC-366	0.913	1.03	1.02	0.955	0.995	1.04	0.977	0.916	0.331	0.297	0.318	0.323	0.156	0.15	0.153	0.156	0.951	0.859	1.09	0.849
BEN	0.98	0.964	1.03	1.19	0.816	0.985	0.884	0.702	1.03	1.02	0.968	1.06	0.809	0.674	0.665	0.752	0.667	0.765	0.824	0.53
NCI-H23	1.05	0.962	0.791	0.562	0.951	0.726	0.901	0.946	0.739	0.517	0.339	0.602	0.635	0.671	0.533	0.458	1.06	0.682	1.18	0.883
201T	0.984	0.918	1	1.03	1.02	1.03	0.927	0.716	1.04	1.01	1.02	1.08	0.345	0.311	0.323	0.32	1.14	1.16	1.06	1.03
NCI-H460	1.04	1.01	0.997	1.01	0.977	0.983	0.907	0.989	0.47	0.433	0.371	0.365	0.0611	0.0661	0.0666	0.0626	1.14	1.26	1.09	0.99
NCI-H661	0.963	0.869	0.991	1.11	1.02	1.07	1	0.779	0.684	0.601	0.758	0.661	0.915	0.82	0.902	0.904	0.879	0.823	0.709	0.384
HCC-15	1.05	0.902	1.05	1.05	1.21	0.785	0.971	1.06	0.944	0.838	0.954	0.925	0.22	0.229	0.238	0.199	1.25	1	0.963	1.11
NCI-H1563	1.09	1.03	0.957	0.769	1.04	1.12	0.971	0.709	1.09	1.07	0.907	0.78	0.681	0.748	0.749	0.809	0.916	0.882	0.824	0.664
LCLC-103H	1.05	0.922	0.979	1	1.06	1.01	1	1.07	0.932	0.979	1.04	1.06	0.464	0.53	0.452	0.467	1.16	1.13	1.15	0.99
NCI-H441	0.954	1.03	0.874	0.902	1.03	0.976	0.922	0.84	0.817	0.669	0.536	0.736	0.304	0.259	0.222	0.254	0.591	0.823	0.665	0.616
EPLC-272H	1.04	0.944	0.93	0.969	0.906	0.873	0.963	0.865	0.74	0.909	1.05	1.05	0.229	0.357	0.256	0.256	0.993	0.933	0.952	0.902
